{
  "source": "patent US20180346995A1",
  "about": "“Process for Exploiting Synthetic Lethality Based on OverExpression of MYC Oncogene” (priority 2017, published 2018)",
  "key": {"[1]": {"test_system": "IMR-90 cells expressing MycER", "test": "Cell death on acute activation of MYC (MycER + 4-OHT), IMR-90", "assay_type": "cell-based, human", "details": "IMR-90 MycER, 3 days; for cell death, agent alone: single agent", "description": "(§1) Cell viability was determined by the trypan blue exclusion assay. Each column represents the average of 3 independent experiments, and each experiment was done in triplicate. Error bars represent one standard deviation. FIG. 1(B) illustrates the cytotoxicity of H-1152 for normal cells and a MYC-overexpressing human cancer cell line IM-9. H-1152 was applied to the indicated cells at 6 μM for 3 days. Cell viability, was determined by the trypan blue exclusion assay. A representative experiment is shown. […] Rat1A cells harboring either an empty vector or various indicated oncogenes were treated with either 0.1% DMSO or 6 μM H-1152 for 3 days. Cell viability was determined by the trypan blue exclusion assay. Each column represents the average of 3 independent experiments, and each experiment was done in triplicate. Error bars represent one standard deviation. […] Rat (Rat1A) or human (HA1E and IMR-90) cells expressing either MycER or MycNER were incubated with or without 6 μM H-1152 and/or 200 nM 4-OHT for 3 days. Cell viability was determined by the trypan blue exclusion assay. A representative experiment is shown.\n(§2) In order to negate the possibility that sustained expression of MYC gene has given rise to unidentified targets affected by H-1152, sensitivity of H-1152 in acutely activated cells was measured. Acute activation of MYC was exploited by means of a MYC-estrogen receptor chimera. This receptor is rapidly activated by the addition of 4-hydroxy-tamoxifen (“4-OH”). […] FIG. 1D. A similar experiment was conducted with acute activation of the MYCN gene. MYCN shares high sequence similarity and crucial biochemical and genetic activities with MYC. […] Accordingly, H-1152 elicits MYC-dependent cell lethality irrespective of whether MYC is constitutively expressed or acutely activated. Furthermore, this sensitivity holds true for both fibroblasts cells and epithelial cells."}, "[2]": {"test_system": "HA1E cells expressing MycER", "test": "Cell death on acute activation of MYC (MycER + 4-OHT), HA1E", "assay_type": "cell-based, human", "details": "3 days; for cell death, agent alone: single agent", "description": "as §1, §2"}, "IM-9 cells": {"test_system": "IM-9 cells", "test": "Trypan blue exclusion cell viability assay in IM-9 cells", "assay_type": "cell-based, human", "details": "IM-9, 6 μM, 3 days", "description": "as §1\n(§3) The result after 3-days treatment were similar. […] The one observed exception is the IM-9 cells that overexpress MYC. Cell lethality in the IM-9 cell line was approximately 30% after H-1152 treatment for 3 days. FIG. 1B."}, "[3]": {"test_system": "NCI-H2199 xenograft tumors", "test": "Xenograft tumor growth in athymic mice, NCI-H2199", "assay_type": "in vivo", "details": "Myc^low NCI-H2199, 60 mg/kg oral gavage twice a day", "description": "(§4) FIG. 7. illustrates how H-1152 elicits therapeutic efficacy against tumorigenesis of cancer cells that overexpress MYC. […] Extracts from four human cancer cell lines (1. NCI-H524, 2. NCI-H841, 3. NCI-H211, 4. NCI-H2199) were blotted for MYC and tubulin by Western blotting. […] See Appendix D for Method of Mouse In Vivo Assay. Two Myc^high cell lines and two Myc^low cell lines were implanted subcutaneously into athymic mice (One to ten millions of cells per injection). When tumors reached approximately 50-70 mm^3, tumor-bearing mice were randomized to receive oral gavage with either vehicle of H-1152 (60 mg/kg body weight per injection) twice a day until the endpoint. The tumor volume was determined at the indicated time points.\n(§5) To determine whether tissue culture results can be replicated in vivo, two cell lines from Myc^High group, namely NCI-H841 and NCI-H524, and two cell lines from Myc^low group, namely NCI-H211 and NCI-H2199. […]\n(§6) Experimental mice are housed and treated according to the protocol approved by the Institutional Animal Care and Use Committee of MBICR. […] Tumor diameter at injection sites are monitored at the indicated time points with a digital caliper and the volume calculated using the formula: V (mm3)=A×B×B/2, where A and B represent the largest and smallest diameters of the tumor respectively."}, "RPE-MYC cells [4]": {"test_system": "RPE-MYC cells", "test": "Trypan blue exclusion cell viability assay in RPE-MYC cells", "assay_type": "cell-based, human", "details": "72 hours", "description": "as §1\nFIG. 3(B) illustrates how H-1152, but not other inhibitors of ROCK kinases, preferentially kills RPE-MYC cells. […] Cell viability was determined by the trypan blue exclusion assay. […]"}, "[5]": {"test_system": "NCI-H841 xenograft tumors", "test": "Xenograft tumor growth in athymic mice, NCI-H841", "assay_type": "in vivo", "details": "Myc^high NCI-H841, 60 mg/kg oral gavage twice a day", "description": "as §4, §5, §6"}, "[6]": {"test_system": "Rat1A cells expressing MYC or other oncogenes", "test": "Trypan blue exclusion cell viability assay in Rat1A cells harboring various oncogenes", "assay_type": "cell-based, rat", "details": "6 μM, 3 days", "description": "as §1\nTo determine whether cytotoxicity by H-1152 is dependent on MYC-expression or any oncogene, rat 1A cells expressing MYC as well as other active cellular oncogenes were evaluated for lethality. […] FIG. 1C."}, "[7]": {"test_system": "NCI-H211 xenograft tumors", "test": "Xenograft tumor growth in athymic mice, NCI-H211", "assay_type": "in vivo", "details": "Myc^low NCI-H211, 60 mg/kg oral gavage twice a day", "description": "as §4, §5, §6"}, "RPE-MYC cells [8]": {"test_system": "RPE-MYC cells", "test": "Apoptosis assays (immunofluorescence, Mitotracker) in RPE-MYC cells", "assay_type": "cell-based, human", "details": "6 μM", "description": "RPE-MYC cells were exposed to 6 μM H-1152 for 48 hours and then incubated for 30 minutes with 40 nM MITOTRACKER Red (Molecular Probes) and fixed. Fixed cells were stained for DNA with DAPI (in blue) and then analyzed with a confocal laser microscope. Arrowheads indicate apoptotic nuclei. Scale bar, 10 μm. See Appendix A—for Immunofluorescence Microscopy method. […] RPE-MYC and RPE-NEO cells were treated with 0.1% DMSO or 6 μM H-1152 for 3 days and then subjected to the indicated assays. Each column represents the average of 3 independent experiments, and each experiment was done in triplicate. Error bars represent one standard deviation.\nFIG. 2B. […] FIB 2A. […]\nCells are cultured on coverslips in a 6-well plate, fixed with 4% paraformaldehyde or 4% paraformaldehyde followed with methanol treatment, and then permeabilized with 0.3% Triton X-100. […] Primary antibodies are detected with Texas red-conjugated or fluorescein isothiocyanate-conjugated secondary antibodies that may be purchased from Jackson ImmunoResearch. […]\nFor determination of mitochondrial membrane potential, cells are cultured on cover slips and exposed for 30 min at 37° C. with 40 nM Mitotracker# Red CMXRos (Molecular Probes), a dye that accumulates in mitochondria as a function of the mitochondrial potential. […] For fluorescence detection, an EVOS FL auto microscope (THERMO FISHER) can be used."}, "[9]": {"test_system": "NCI-H524 xenograft tumors", "test": "Xenograft tumor growth in athymic mice, NCI-H524", "assay_type": "in vivo", "details": "Myc^high NCI-H524, 60 mg/kg oral gavage twice a day", "description": "as §4, §5, §6"}, "[10]": {"test_system": "Myc^high human cancer cell lines", "test": "Cytotoxicity in Myc^high human cancer cell lines (trypan blue)", "assay_type": "cell-based", "details": "6 μM, 4 days", "description": "(§7) FIG. 5. illustrates that MYC abundance is a univariate predicator of the response of human tumor cell lines to H-1152 by showing the cytotoxicity of H-1152 for 75 human cancer cell lines. Cell lines in the Myc^high group and the Myc^low group were treated for four days with either 0.1% DMSO or 6 μM H-1152. Cell viability was then determined by the trypan blue exclusion assay. FIG. 5(A) is a histogram representing the average of two independent experiments. […] Results are presented as the percentage of dead cells in the presence of H-1152 minus that in the presence of DMSO. Red, yellow and green dots represent cell lines with abundant Myc, MycN and L-Myc respectively. Comparison of the two data sets with two-sided Mann-Whitney test indicates p<0.0001.\n(§8) The Myc^high group also includes 8 cell lines with abundant MycN expression and 3 cell lines abundantly expressing L-Myc. […] (FIG. 5 A, B). The difference between the two data sets was statistically significant."}, "[11]": {"test_system": "normal cells and immortalized cells", "test": "Trypan blue exclusion cell viability assay in normal and immortalized cells", "assay_type": "cell-based", "details": "6 μM, 3 days", "description": "as §1, §3"}, "RPE-NEO cells": {"test_system": "RPE-NEO cells", "test": "Trypan blue exclusion cell viability assay in RPE-NEO cells", "assay_type": "cell-based, human", "details": "6 μM H-1152, 3 days", "description": "as §1\nIn order to confirm that H-1152 elicits cytotoxicity in cells overexpressing MYC, human retinal pigment epithelial cells were stably transfected with either MYC or a Neomycin selection marker gene (“NEO”) in combination with hTERT. […]"}, "[12]": {"test_system": "Myc^low human cancer cell lines", "test": "Cytotoxicity in Myc^low human cancer cell lines (trypan blue)", "assay_type": "cell-based", "details": "Myc^low group, 6 μM, 4 days", "description": "as §7, §8"}, "[13]": {"test_system": "cells expressing MYCN-estrogen receptor chimera", "test": "Cell death on acute activation of MYCN (MycNER + 4-OHT)", "assay_type": "cell-based", "details": "MYCN-ER activated with 4-OHT, H-1152 application", "description": "as §1\nIn order to negate the possibility that sustained expression of MYC gene has given rise to unidentified targets affected by H-1152, sensitivity of H-1152 in acutely activated cells was measured. Acute activation of MYC was exploited by means of a MYC-estrogen receptor chimera. […]"}, "ROCKII": {"biological_target": "ROCKII (Homo sapiens, UniProt O75116)", "sequence (O75116 whole entry, species assumed)": "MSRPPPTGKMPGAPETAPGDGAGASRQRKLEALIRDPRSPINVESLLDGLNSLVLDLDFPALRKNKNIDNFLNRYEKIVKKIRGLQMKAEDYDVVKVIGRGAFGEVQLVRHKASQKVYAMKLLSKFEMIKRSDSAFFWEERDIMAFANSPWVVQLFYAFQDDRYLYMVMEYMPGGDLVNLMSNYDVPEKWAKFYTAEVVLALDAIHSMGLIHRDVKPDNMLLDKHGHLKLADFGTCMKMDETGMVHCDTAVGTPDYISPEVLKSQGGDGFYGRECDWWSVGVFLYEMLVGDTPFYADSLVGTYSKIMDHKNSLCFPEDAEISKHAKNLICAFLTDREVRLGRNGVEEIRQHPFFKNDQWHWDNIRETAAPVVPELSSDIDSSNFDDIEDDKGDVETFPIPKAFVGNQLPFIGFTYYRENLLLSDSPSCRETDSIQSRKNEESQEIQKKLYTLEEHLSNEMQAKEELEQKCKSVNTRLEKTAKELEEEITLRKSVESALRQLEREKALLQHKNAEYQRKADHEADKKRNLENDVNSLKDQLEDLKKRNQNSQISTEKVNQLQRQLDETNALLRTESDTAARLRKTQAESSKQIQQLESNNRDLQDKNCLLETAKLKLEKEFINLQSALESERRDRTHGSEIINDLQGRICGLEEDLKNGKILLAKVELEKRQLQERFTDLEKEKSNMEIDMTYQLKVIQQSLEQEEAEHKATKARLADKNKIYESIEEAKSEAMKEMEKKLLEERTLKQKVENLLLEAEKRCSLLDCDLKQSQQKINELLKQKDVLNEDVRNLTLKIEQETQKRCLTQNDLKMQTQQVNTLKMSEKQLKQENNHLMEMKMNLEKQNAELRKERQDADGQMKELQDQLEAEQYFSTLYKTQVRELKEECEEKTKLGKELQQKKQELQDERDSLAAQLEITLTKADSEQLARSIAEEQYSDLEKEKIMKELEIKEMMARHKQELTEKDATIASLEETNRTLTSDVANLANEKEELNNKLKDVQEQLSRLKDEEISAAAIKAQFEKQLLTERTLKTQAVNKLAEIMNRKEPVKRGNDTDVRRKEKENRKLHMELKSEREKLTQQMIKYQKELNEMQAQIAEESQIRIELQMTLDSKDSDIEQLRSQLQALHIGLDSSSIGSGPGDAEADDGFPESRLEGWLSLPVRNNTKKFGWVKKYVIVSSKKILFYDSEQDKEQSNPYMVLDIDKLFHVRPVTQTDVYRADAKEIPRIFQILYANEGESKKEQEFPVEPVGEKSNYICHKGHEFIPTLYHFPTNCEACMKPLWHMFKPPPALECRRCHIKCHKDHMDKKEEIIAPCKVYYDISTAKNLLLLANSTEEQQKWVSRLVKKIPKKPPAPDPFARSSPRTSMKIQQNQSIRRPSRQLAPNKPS", "details": "cited from earlier work"}, "[14]": {"details": "6 μM H-1152 together with 200 nM 4-OHT"}},
  "data": [
    {"compound": "4-hydroxy-tamoxifen [4-OH]", "values": [
      {"measurement": "cell death, agent alone", "setting": "[1]", "value": "low levels of cell death"},
      {"measurement": "cell death, agent alone", "setting": "[2]", "value": "low levels of cell death"}
    ]},
    {"compound": "Cc1cncc2cccc(S(=O)(=O)N3CCCNC[C@@H]3C)c12", "note": "[H-1152, dimethylfasudil]", "values": [
      {"measurement": "cell lethality", "setting": "IM-9 cells", "value": "approximately 30%"},
      {"measurement": "tumor development", "setting": "[3]", "value": "failed to impact tumor development"},
      {"measurement": "cell lethality", "setting": "RPE-MYC cells [4]; 6 μM H-1152 + 100 μM z-VAD-fmk", "value": 15, "unit": "%"},
      {"measurement": "cell death in comparison of ROCK inhibitors", "setting": "RPE-MYC cells [4]", "value": "significant cell death"},
      {"measurement": "cell lethality", "setting": "[1]; [14]", "value": "over 30%"},
      {"measurement": "cell death, agent alone", "setting": "[1]", "value": "low levels of cell death"},
      {"measurement": "tumor development", "setting": "[5]", "value": "slowed down tumor development"},
      {"measurement": "cell death among cells with various active oncogenes", "setting": "[6]", "value": "only MYC expressing cells demonstrated cell death"},
      {"measurement": "tumor development", "setting": "[7]", "value": "failed to impact tumor development"},
      {"measurement": "mitochondria-dependent apoptosis pathway events (membrane potential, cytochrome C release, caspase 9)", "setting": "RPE-MYC cells [8]; 48 hours", "value": "cell death via activation of the mitochondria-dependent apoptosis pathway"},
      {"measurement": "apoptotic features (nuclear condensation, caspase 3 activation, PARP cleavage)", "setting": "RPE-MYC cells [8]; 3 days", "value": "Symptoms of classical apoptosis were recorded"},
      {"measurement": "tumor development", "setting": "[9]", "value": "stabilized tumor development"},
      {"measurement": "cell lethality", "setting": "[2]; [14]", "value": "over 30%"},
      {"measurement": "cell death, agent alone", "setting": "[2]", "value": "low levels of cell death"},
      {"measurement": "cell death across cell lines, Myc^high versus Myc^low", "setting": "[10]", "value": "massive cell death in a much higher percentage of cell lines in the Myc^high group"},
      {"measurement": "cell lines that failed to undergo apoptosis", "setting": "[10]; Myc^high group", "value": "11 of the 51"},
      {"measurement": "cell toxicity", "setting": "[11]", "value": "negligible effect on cell toxicity"},
      {"measurement": "cells killed", "setting": "RPE-NEO cells", "value": "none"},
      {"measurement": "cell lines sensitive to H-1152", "setting": "[12]", "value": "3 of 24"},
      {"measurement": "cell lethality", "setting": "[13]", "value": "high cell lethality"}
    ]},
    {"compound": "C[C@H]1CNCCCN1S(=O)(=O)c1cccc2cncc(F)c12", "note": "[Rapasudil]", "values": [
      {"measurement": "IC50", "setting": "ROCKII", "value": 19, "unit": "nM"}
    ]}
  ]
}
